Experimental data: patent US11160875B2, “Therapeutic nanofiber hydrogels for local treatment of brain-related diseases” (THE JOHNS HOPKINS UNIVERSITY, priority 2015, dated 2021)
Non-standard residues stand in square brackets, D forms with d. Residues, ends and D or L forms follow the SMILES beside them. No end group written: not given here. ξ: configuration not given here. *: point of attachment. Paclitaxel(2'-OCO(CH2)3S) = CC(=O)O[C@H]1C(=O)[C@@]2(C)[C@H]([C@H](OC(=O)c3ccccc3)[C@]3(O)C[C@H](OC(=O)[C@H](OC(=O)CCCS*)[C@@H](NC(=O)c4ccccc4)c4ccccc4)C(C)=C1C3(C)C)[C@]1(OC(C)=O)CO[C@@H]1C[C@@H]2O; Palmitoyl = CCCCCCCCCCCCCCCC(=O)*; ξV = CC(C)C(N)C(=O)O

Tests used:
[1] = test system: 965 human primary brain tumor cells; test: Cytotoxicity dose-response, SRB assay, 965; type: cell-based; conditions: 965 primary cells, 72 h incubation per FIG. 16 legend
Description: (§1) FIGS. 16A-16B depict the cytotoxicity evaluation of PTX-buSS-FFFRGDR (SEQ ID NO: 1), PTX-buSS-VVVRGDR (SEQ ID NO: 2), and C16-FFFRGDR (SEQ ID NO: 1) against U87 human glioblastoma cells (A) and 965 human primary brain tumor cells (B). Cells were incubated with the PTX or conjugates for 48 h (U87) or 72 h (965) and cell viability was determined by SRB assay. Data are given as mean±s.d. (n=3).
(§2) U87 human glioblastoma cells were provided by Prof. Denis Wirtz's lab (Department of Chemical and Biomolecular Engineering, Johns Hopkins University). Primary human brain cancer cell line 965 was provided by Prof. Alfredo Quinones-Hinojosa of the Johns Hopkins Medical School. All cell lines were cultured according to providers' protocols. U87 human glioblastoma cells were grown in DMEM with 10% FBS and 1% antibiotics. Primary human brain cancer cell line 965 was grown in DEME/F12 with 2% Neuroplex, 1% antibiotics, 20 ng/mL hEGF and 20 ng/mL hFGF.
(§3) The cytotoxicity assays of PTX-FFFRGDR (SEQ ID NO: 1), PTX-VVVRGDR (SEQ ID NO: 2), C16-FFFRGDR (SEQ ID NO: 1) were determined using a dose-response study. A 96-well plate was seeded with cell sat a density of 5×10^3 cells/well and incubated at 37° C. for 24 h. The cells were then treated with varying concentrations of paclitaxel or conjugate in cell medium and incubated for a further 48 h (U87) or 72 h (primary cell lines). Cell viability was determined by sulforhodamine-B (SRB, Sigma Aldrich) assay according to the manufacturer's protocol. The data was fitted using the Hill equation function within the Igor Pro program and used to obtain the IC50 value.
(§4) The in vitro cytotoxicity of PTX-buSS-FFFRGDR (SEQ ID NO: 1) was assessed an compared to that of free PTX, PTX-buSS-VVVRGDR (SEQ ID NO: 2) and C16-FFFRGDR (SEQ ID NO: 1) against two brain tumor cell lines, including U87 human glioblastoma cell line and 965 primary human brain tumor cell line (FIG. 16). Cells were incubated for 48 h with varying drug concentrations and cell viability was determined using sulforhodamine B (SRB) assay. […]

[2] = test system: U87 human glioblastoma cells; test: Cytotoxicity dose-response, SRB assay, U87; type: cell-based; conditions: U87, 48 h incubation
Description: as §1, §2, §3, §4

[3] = test system: U87 human glioblastoma cells; test: Hydrogel drug release and cytotoxicity, live/dead cell staining; type: cell-based; conditions: U87, 24 h incubation with hydrogel, near-gel region 1 and peripheral region 2
Description: FIGS. 17A-17F show the in vitro drug release and cytotoxicity study of PTX-buSS-FFFRGDR (SEQ ID NO: 1), PTX-buSS-VVVRGDR (SEQ ID NO: 2), and C16-FFFRGDR (SEQ ID NO: 1) hydrogels against U87 human glioblastoma cells. Live/dead assay cell images after 24 h of incubation with blank culture media (A and D), PTX-buSS-FFFRGDR (SEQ ID NO: 1) (B and E), or C16-FFFRGDR (SEQ ID NO: 1) (C and F).
The in vitro drug release and cytotoxicity of PTX-buSS-FFFRGDR (SEQ ID NO: 1) was assessed and compared to that of C16-FFFRGDR (SEQ ID NO: 1) blank hydrogel against U87 human glioblastoma cells (FIG. 17). Cells were incubated for 24 h with PTX-loaded and PTX-free hydro-gels and cell viability was determined using live/dead cell staining method. Two sections along gradient decaying radius were taken to compare cell viability after treatment with different hydrogels.

[4] = Paclitaxel release study in PBS buffer with or without GSH; type: physicochemical; conditions: 37° C., 50 μM, presence or absence of 10 mM GSH
Description: FIGS. 15A-15D illustrate fluorescence measurements to determine the CMC value of PTX-buSS-FFFRGDR (SEQ ID NO: 1) (A) and PTX-buSS-VVVRGDR (SEQ ID NO: 2) (B) based on Nile Red encapsulation within the assembled nanostructures. Representative CD spectra (solid lines) and UV-vis spectra (dash lines) of 200 μM PTX-buSS-FFFRGDR (SEQ ID NO: 1), 200 μM PTX-buSS-VVVRGDR (SEQ ID NO: 2) and 200 μM. C16-FFFRGDR (SEQ ID NO: 1) (C). Paclitaxel release study of PTX-buSS-FFFRGDR (SEQ ID NO: 1) and PTX-buSS-VVVRGDR (SEQ ID NO: 2) in PBS buffer at 37° C. at 50 μM. Solutions were incubated in the presence or absence of 10 mM GSH. Data are given as mean±s.d. (n=3).
Since the release of the active compound is critical and tunable by altering nanofilaments morphologies, experiments to determine PTX release were carried out in PBS buffer at 37° C. in the presence or absence of 10 mM GSH (FIG. 15D).

[5] = test system: primary glioma cells derived from three patients; conditions: varying concentrations
Description: (§5) (C) Cumulative release of drug from the hydrogel formed by CPT-HKD (1.2 wt %) over one month. […] (D) Cell viability of primary glioma cells derived from three patients treated by CPT-HKD of varying concentrations.
(§6) CPT-HKD was incubated with primary glioma cells derived from three patients to determine cytotoxicity (FIG. 18D).

implanted tumors = test: In vivo brain tumor resection model
Description: A) A cranial window (5 mm) was made at the same location of tumor implantation, and the tumor was resected with microscissors. A droplet of CPT nanofiber solution was placed in the resected area, forming hydrogels upon delivery. A methacrylate membrane was used to cover the skull defect.
A droplet of CPT-HKD nanofiber solution was placed in the resected area, forming hydrogels upon delivery. A methacrylate membrane was used to cover the skull defect.
Using the in vivo brain tumor resection model described above, mice with implanted tumors were treated with resection of the tumor alone or resection and addition of CPT-HKD hydrogel and the tumor site was subjected to BLI analysis at 1 and 2 weeks post-resection.
Using the in vivo brain tumor resection model described above, mice with implanted tumors were treated with resection of the tumor alone or resection and addition of CPT-HKD hydrogel for 1 month. After the test period, mouse brains were removed and sectioned in 10 μm thick sections and stained using H&E methods. Tumor area was determined by stereological analysis of consecutive 10 μm thick sections. p value was calculated by Mann-Whitney U (p=0.037).

[6] = Cumulative release of drug from CPT-HKD hydrogel; type: physicochemical
Description: as §5, §6

[7] = Hydrogel formation of CPT-HKD nanofibers in DPBS; type: physicochemical
Description: as §5, §6

For CCCCCCCCCCCCCCCC(=O)N[C@@H](Cc1ccccc1)C(=O)N[C@@H](Cc1ccccc1)C(=O)N[C@@H](Cc1ccccc1)C(=O)N[C@@H](CCCNC(=N)N)C(=O)NCC(=O)N[C@@H](CC(=O)O)C(=O)N[C@@H](CCCNC(=N)N)C(=O)O [C16-FFFRGDR] (Palmitoyl-FFFRGDR-OH), the “in vitro cytotoxicity (cell viability)” value [1] was “didn't show any significant toxicity”, the “in vitro cytotoxicity (cell viability)” value [2] was “didn't show any significant toxicity” and the “cell viability by live/dead staining around the hydrogel” value [3] was “non-toxicity against U87 cells in both regions”.

For CC(=O)N[C@@H](CSSCCCC(=O)O[C@@H](C(=O)O[C@H]1C[C@@]2(O)[C@@H](OC(=O)c3ccccc3)[C@@H]3[C@]4(OC(C)=O)CO[C@@H]4C[C@H](O)[C@@]3(C)C(=O)[C@H](OC(C)=O)C(=C1C)C2(C)C)[C@@H](NC(=O)c1ccccc1)c1ccccc1)C(=O)N[C@@H](Cc1ccccc1)C(=O)N[C@@H](Cc1ccccc1)C(=O)N[C@@H](Cc1ccccc1)C(=O)N[C@@H](CCCNC(=N)N)C(=O)NCC(=O)N[C@@H](CC(=O)O)C(=O)N[C@@H](CCCNC(=N)N)C(=O)O [PTX-buSS-FFFRGDR] (Ac-C(Paclitaxel(2'-OCO(CH2)3S))FFFRGDR-OH), the “in vitro cytotoxicity (cell viability)” value [1] was “near-identical toxicity to free PTX” and the “in vitro cytotoxicity (cell viability)” value [2] was “near-identical toxicity to free PTX”.

For CC(=O)N[C@@H](CSSCCCC(=O)O[C@@H](C(=O)O[C@H]1C[C@@]2(O)[C@@H](OC(=O)c3ccccc3)[C@@H]3[C@]4(OC(C)=O)CO[C@@H]4C[C@H](O)[C@@]3(C)C(=O)[C@H](OC(C)=O)C(=C1C)C2(C)C)[C@@H](NC(=O)c1ccccc1)c1ccccc1)C(=O)NCC(=O)N[C@H](C(=O)NC(C(=O)N[C@H](C(=O)N[C@@H](CCCNC(=N)N)C(=O)NCC(=O)N[C@@H](CC(=O)O)C(=O)N[C@@H](CCCNC(=N)N)C(=O)O)C(C)C)C(C)C)C(C)C (stereo partly shown) [PTX-buSS-VVVRGDR] (Ac-C(Paclitaxel(2'-OCO(CH2)3S))GV[ξV]VRGDR-OH), the “in vitro cytotoxicity (cell viability)” value [1] was “near-identical toxicity to free PTX”, the “in vitro cytotoxicity (cell viability)” value [2] was “near-identical toxicity to free PTX” and the “PTX release rate, with GSH versus without” value [4] was “faster release rates under GSH conditions”.

For “CPT-HKD (GVVQQHKD; also: camptothecin conjugated via buSS linker, site not given here)”, the “cytotoxicity (cell viability)” value [5] was “dose dependent cytotoxicity shown in all three cell lines”, the “BLI signal intensity versus resection only group” value (implanted tumors; 1 and 2 weeks post-resection, p=0.0076) was “significant lower intensity” and the “difference in survival versus resection only group” value (implanted tumors; Kaplan-Meier analysis, p=0.01) was “extension of one-week”. For the same molecule, the “tumor area versus resection only group” value (implanted tumors; after 1 month of treatment, stereological analysis of 10 μm sections, p=0.037) was “Reduces Brain Tumor Area”, the “survival (Kaplan-Meier)” value (implanted tumors; resection plus hydrogel, resection only 35 days, p=0.01) was 41 days and the hydrogel shape retention ([6]; after one month) was “retained its shape after one month”. For the same molecule, the “cumulative release of drug from the hydrogel” value ([6]; hydrogel 1.2 wt %, over one month) was “about 15 % of total bound drug” and the “concentration at which nanofibers form a hydrogel” value [7] was “higher than 0.4 wt %”.
